In US7217726B2, “Antibacterial agents” (Orchid Chemicals & Pharmaceuticals Limited, priority 2002, dated 2007) one finds MIC data, which are given here for four molecules.

Assay [1] has as its system S. epidermidis MRO 02046. As to the kind of experiment: Agar Dilution Method MIC, S. epidermidis MRO 02046. The format is cell-based. The settings on record: Staphylococcus epidermidis, MRO02046, Mueller Hinton Agar, 35° Celsius, 20 hours, read-out: Minimum Inhibitory Concentration (MIC in μg/ml). How it is done:
(§1) Briefly, the compounds of invention were weighed, dissolved in Dimethyl Sulfoxide, serially diluted in the same solvent and then incorporated into molten Mueller Hinton Agar in a petridish before solidification, with each petridish containing a different concentration of a compound.
(§2) The Bacterial Inoculum was prepared by touching the tops of 3 to 5 well isolated bacterial colonies with the same morphological appearance from an 18 hour old culture with an inoculating loop, transfering the growth to a tube containing 5 ml of normal saline and adjusting the turbidity of the saline suspension to 0.5 Macfarland Turbidity Standard equivalent to a bacterial population of 1.5×10^8 colony forming units (CFU) per millilitre of suspension.
(§3) The bacterial inoculum prepared in the above manner was inoculated onto petri dishes containing Mueller Hinton Agar which had earlier been incorporated with different dilutions of the compounds of invention by a Multipoint Inoculator with each inoculum spot containing approximately 1×10^4 colony forming units (CFU) of bacteria.
(§4) The inoculated petridishes were incubated at 35° Celsius in an ambient atmosphere for 20 hours. Petridishes containing different concentrations of Vancomycin and Oxacillin and inoculated with Staphylococcus aureus, Coagulase Negative Staphylococci and Enterococci were incubated for 24 hours.

Assay [2] relates to M. catarrhalis ATCC 43628. As to the kind of experiment: Agar Dilution Method MIC, M. catarrhalis ATCC 43628. As to conditions: Moraxella catarrhalis, ATCC43628, Mueller Hinton Agar, 35° Celsius, 20 hours, read-out: Minimum Inhibitory Concentration (MIC in μg/ml). The format is cell-based, Morexella catarrhalis. How it is done: as §1, §2, §3, §4
In assay [3] the test system is S. aureus MRO 00003. As to the kind of experiment: Agar Dilution Method MIC, S. aureus MRO 00003. In kind it is cell-based. As to conditions: Staphylococcus aureus, MRO00003, Mueller Hinton Agar, 35° Celsius, 20 hours, read-out: Minimum Inhibitory Concentration (MIC in μg/ml). How it is done: as §1, §2, §3, §4
Assay [4] deals with M. catarrhalis ATCC 43627. As to the kind of experiment: Agar Dilution Method MIC, M. catarrhalis ATCC 43627. In kind it is cell-based, Morexella catarrhalis. As to conditions: Moraxella catarrhalis, ATCC43627, Mueller Hinton Agar, 35° Celsius, 20 hours, read-out: Minimum Inhibitory Concentration (MIC in μg/ml). How it is done:
as §1, §2, §3, §4

For assay [5], the system named is S. aureus MRO 00001. As to the kind of experiment: Agar Dilution Method MIC, S. aureus MRO 00001. In kind it is cell-based. The settings on record: Staphylococcus aureus, MRO00001, Mueller Hinton Agar, 35° Celsius, 20 hours, read-out: Minimum Inhibitory Concentration (MIC in μg/ml). How it is done: as §1, §2, §3, §4
In general terms: Agar dilution tests growth on a series of plates holding different concentrations.

Assay [6] has as its system S. aureus ATCC 43300. As to the kind of experiment: Agar Dilution Method MIC, S. aureus ATCC 43300. In kind it is cell-based. As to conditions: Staphylococcus aureus, ATCC43300, Mueller Hinton Agar, 35° Celsius, 20 hours, read-out: Minimum Inhibitory Concentration (MIC in μg/ml). How it is done:
as §1, §2, §3, §4

The test system of assay [7] is E. faecalis ATCC 29212. As to the kind of experiment: Agar Dilution Method MIC, E. faecalis ATCC 29212. In kind it is cell-based. As to conditions: Enterococcus faecalis, ATCC29212, Mueller Hinton Agar, 35° Celsius, 20 hours, read-out: Minimum Inhibitory Concentration (MIC in μg/ml). How it is done:
as §1, §2, §3, §4

In assay [8] the test system is E. faecalis ATCC 51299. As to the kind of experiment: Agar Dilution Method MIC, E. faecalis ATCC 51299. As to conditions: Enterococcus faecalis, ATCC51299, Mueller Hinton Agar, 35° Celsius, 20 hours, read-out: Minimum Inhibitory Concentration (MIC in μg/ml). In kind it is cell-based. How it is done:
as §1, §2, §3, §4

The subject of assay [9] is S. aureus MRO 00055. As to the kind of experiment: Agar Dilution Method MIC, S. aureus MRO 00055. The settings on record: Staphylococcus aureus, MRO00055, Mueller Hinton Agar, 35° Celsius, 20 hours, read-out: Minimum Inhibitory Concentration (MIC in μg/ml). In kind it is cell-based. How it is done: as §1, §2, §3, §4
Assay [10] concerns S. aureus MRO 00030. As to the kind of experiment: Agar Dilution Method MIC, S. aureus MRO 00030. The format is cell-based. The settings on record: Staphylococcus aureus, MRO00030, Mueller Hinton Agar, 35° Celsius, 20 hours, read-out: Minimum Inhibitory Concentration (MIC in μg/ml). How it is done: as §1, §2, §3, §4
The test system of assay [11] is S. aureus ATCC 29213. As to the kind of experiment: Agar Dilution Method MIC, S. aureus ATCC 29213. The format is cell-based. As to conditions: Staphylococcus aureus, ATCC29213, Mueller Hinton Agar, 35° Celsius, 20 hours, read-out: Minimum Inhibitory Concentration (MIC in μg/ml). How it is done:
as §1, §2, §3, §4

Assay [12] relates to S. aureus MRO 00048. As to the kind of experiment: Agar Dilution Method MIC, S. aureus MRO 00048. In kind it is cell-based. As to conditions: Staphylococcus aureus, MRO00048, Mueller Hinton Agar, 35° Celsius, 20 hours, read-out: Minimum Inhibitory Concentration (MIC in μg/ml). How it is done: as §1, §2, §3, §4
Assay [13] relates to E. fecalis MRO 04045. As to the kind of experiment: Agar Dilution Method MIC, E. fecalis MRO 04045. The format is cell-based. The settings on record: Enterococcus faecalis, MRO04045, Mueller Hinton Agar, 35° Celsius, 20 hours, read-out: Minimum Inhibitory Concentration (MIC in μg/ml). How it is done: as §1, §2, §3, §4
Assay [14] deals with S. aureus MRO 00013. As to the kind of experiment: Agar Dilution Method MIC, S. aureus MRO 00013. In kind it is cell-based. As to conditions: Staphylococcus aureus, MRO00013, Mueller Hinton Agar, 35° Celsius, 20 hours, read-out: Minimum Inhibitory Concentration (MIC in μg/ml). How it is done:
as §1, §2, §3, §4

Assay [15] deals with M. catarrhalis ATCC 43617. As to the kind of experiment: Agar Dilution Method MIC, M. catarrhalis ATCC 43617. In kind it is cell-based, Morexella catarrhalis. The settings on record: Moraxella catarrhalis, ATCC43617, Mueller Hinton Agar, 35° Celsius, 20 hours, read-out: Minimum Inhibitory Concentration (MIC in μg/ml). How it is done:
as §1, §2, §3, §4

Assay [16] concerns S. aureus MRO 00059. As to the kind of experiment: Agar Dilution Method MIC, S. aureus MRO 00059. The settings on record: Staphylococcus aureus, MRO00059, Mueller Hinton Agar, 35° Celsius, 20 hours, read-out: Minimum Inhibitory Concentration (MIC in μg/ml). In kind it is cell-based. How it is done:
as §1, §2, §3, §4

≈ marks a conversion by molar mass, not a printed value.

Consider `CC(=S)NC[C@H]1CN(c2ccc(N3CCN(C(=S)c4ccc([N+](=O)[O-])o4)CC3)c(F)c2)C(=O)O1` [Example 5, (S)-N-[3-[3-Fluoro-4-[4-(5-nitrofuran-2-ylthiocarbonyl)piperazin-1-yl]phenyl]-2-oxooxazolidin-5-ylmethyl]thioacetamide], for which the MIC in [1] was 0.25 µg/mL (≈ 0.493 µM); in assay [2], 0.5 µg/mL (≈ 0.985 µM); in assay [3], 0.5 µg/mL (≈ 0.985 µM); in assay [4], 1 µg/mL (≈ 1.97 µM); in assay [5] it was 0.5 µg/mL (≈ 0.985 µM); in [6] it was 0.25 µg/mL (≈ 0.493 µM). Besides, the MIC was found to be 0.5 µg/mL (≈ 0.985 µM) in assay [7]; 0.5 µg/mL (≈ 0.985 µM) in [8]; 0.5 µg/mL (≈ 0.985 µM) in [9]; 0.5 µg/mL (≈ 0.985 µM) in [10]; 0.5 µg/mL (≈ 0.985 µM) in assay [11]; 0.25 µg/mL (≈ 0.493 µM) in [12]. Further, the MIC in [13] turned out to be 1 µg/mL (≈ 1.97 µM); in [14], 0.5 µg/mL (≈ 0.985 µM); in assay [15], 0.5 µg/mL (≈ 0.985 µM); in assay [16] it was 0.5 µg/mL (≈ 0.985 µM).

In the case of `CC(=S)NC[C@H]1CN(c2ccc(N3CCN(C(=S)c4cccs4)CC3)c(F)c2)C(=O)O1` [Example 3, (S)-N-[3-[3-Fluoro-4-[4-(thiophen-2-ylthiocarbonyl)piperazin-1-yl]phenyl]-2-oxooxazolidin-5-ylmethyl]thioacetamide], the MIC amounted to 0.5 µg/mL (≈ 1.04 µM) in assay [1]; 1 µg/mL (≈ 2.09 µM) in assay [2]; 1 µg/mL (≈ 2.09 µM) in assay [3]; 1 µg/mL (≈ 2.09 µM) in assay [4]; 0.5 µg/mL (≈ 1.04 µM) in assay [5]; 0.25 µg/mL (≈ 0.522 µM) in assay [6]. For the same molecule, the MIC in assay [7] was 0.5 µg/mL (≈ 1.04 µM); in assay [8], 0.25 µg/mL (≈ 0.522 µM); in [9], 1 µg/mL (≈ 2.09 µM); in assay [10], 0.5 µg/mL (≈ 1.04 µM); in [11], 0.5 µg/mL (≈ 1.04 µM); in [12], 0.25 µg/mL (≈ 0.522 µM). Also, the MIC in [13] turned out to be 1 µg/mL (≈ 2.09 µM); in assay [14] it was 1 µg/mL (≈ 2.09 µM); in assay [15], 1 µg/mL (≈ 2.09 µM); in assay [16] it was 0.25 µg/mL (≈ 0.522 µM).

Take `CC(=S)NC[C@H]1CN(c2ccc(N3CCN(C(=S)c4ccsc4)CC3)c(F)c2)C(=O)O1` [Example 1, (S)-N-[3-[3-fluoro-4-[4(thiophen-3-ylthiocarbonyl)piperazin-1-yl]phenyl]-2-oxooxazolidin-5-ylmethyl]thioacetamide]: the MIC in [1] amounted to 0.25 µg/mL (≈ 0.522 µM); in assay [2], 1 µg/mL (≈ 2.09 µM); in [3] it was 0.5 µg/mL (≈ 1.04 µM); in assay [4], 1 µg/mL (≈ 2.09 µM); in assay [5], 0.25 µg/mL (≈ 0.522 µM); in assay [6], 0.25 µg/mL (≈ 0.522 µM). Also, the MIC stood at 0.5 µg/mL (≈ 1.04 µM) in assay [7]; 0.5 µg/mL (≈ 1.04 µM) in [8]; 0.5 µg/mL (≈ 1.04 µM) in [9]; 0.5 µg/mL (≈ 1.04 µM) in assay [10]; 0.25 µg/mL (≈ 0.522 µM) in [11]; 0.25 µg/mL (≈ 0.522 µM) in [12]. Further, the MIC in assay [13] was found to be 0.5 µg/mL (≈ 1.04 µM); in assay [14], 0.5 µg/mL (≈ 1.04 µM); in assay [15], 1 µg/mL (≈ 2.09 µM); in assay [16] it was 0.5 µg/mL (≈ 1.04 µM).

Regarding `CC(=S)NC[C@H]1CN(c2ccc(N3CCN(C(=S)c4ccc(C)s4)CC3)c(F)c2)C(=O)O1` [Example 7, (S)-N-[3-[3-Fluoro-4-[4-(5-methylthiophen-2-ylthiocarbonyl)piperazin-1-yl]phenyl]-2-oxooxazolidin-5-ylmethyl]thioacetamide], the MIC amounted to 0.25 µg/mL (≈ 0.507 µM) in assay [1]; 2 µg/mL (≈ 4.06 µM) in [2]; 0.5 µg/mL (≈ 1.01 µM) in [3]; 2 µg/mL (≈ 4.06 µM) in assay [4]; 0.25 µg/mL (≈ 0.507 µM) in assay [5]; 0.5 µg/mL (≈ 1.01 µM) in assay [6]. Besides, the MIC in [7], in [8], in assay [9], in [10], in assay [11] and in [12] was 0.5 µg/mL (≈ 1.01 µM) each time. In addition, the MIC in assay [13] is 0.5 µg/mL (≈ 1.01 µM); in assay [14], 1 µg/mL (≈ 2.03 µM); in [15] it was 2 µg/mL (≈ 4.06 µM); in assay [16] it was 0.5 µg/mL (≈ 1.01 µM).
